Drawing on patent US20250376461A1, “INDAZOLE DERIVATIVES FOR TREATING TRPM3-MEDIATED DISORDERS” (Katholieke Universiteit Leuven, priority 2022, published 2025), this text covers IC50 for 39 molecules.

For this assay, the target named is T1, mouse TRPM3α2 (mTRPM3) ion channel (Mus musculus, UniProt J9SQF3).
T1 construct: expressed in transfected cells; host or cells: flip-in HEK293
T1 sequence (J9SQF3 1-1709 isoform J9SQF3-12): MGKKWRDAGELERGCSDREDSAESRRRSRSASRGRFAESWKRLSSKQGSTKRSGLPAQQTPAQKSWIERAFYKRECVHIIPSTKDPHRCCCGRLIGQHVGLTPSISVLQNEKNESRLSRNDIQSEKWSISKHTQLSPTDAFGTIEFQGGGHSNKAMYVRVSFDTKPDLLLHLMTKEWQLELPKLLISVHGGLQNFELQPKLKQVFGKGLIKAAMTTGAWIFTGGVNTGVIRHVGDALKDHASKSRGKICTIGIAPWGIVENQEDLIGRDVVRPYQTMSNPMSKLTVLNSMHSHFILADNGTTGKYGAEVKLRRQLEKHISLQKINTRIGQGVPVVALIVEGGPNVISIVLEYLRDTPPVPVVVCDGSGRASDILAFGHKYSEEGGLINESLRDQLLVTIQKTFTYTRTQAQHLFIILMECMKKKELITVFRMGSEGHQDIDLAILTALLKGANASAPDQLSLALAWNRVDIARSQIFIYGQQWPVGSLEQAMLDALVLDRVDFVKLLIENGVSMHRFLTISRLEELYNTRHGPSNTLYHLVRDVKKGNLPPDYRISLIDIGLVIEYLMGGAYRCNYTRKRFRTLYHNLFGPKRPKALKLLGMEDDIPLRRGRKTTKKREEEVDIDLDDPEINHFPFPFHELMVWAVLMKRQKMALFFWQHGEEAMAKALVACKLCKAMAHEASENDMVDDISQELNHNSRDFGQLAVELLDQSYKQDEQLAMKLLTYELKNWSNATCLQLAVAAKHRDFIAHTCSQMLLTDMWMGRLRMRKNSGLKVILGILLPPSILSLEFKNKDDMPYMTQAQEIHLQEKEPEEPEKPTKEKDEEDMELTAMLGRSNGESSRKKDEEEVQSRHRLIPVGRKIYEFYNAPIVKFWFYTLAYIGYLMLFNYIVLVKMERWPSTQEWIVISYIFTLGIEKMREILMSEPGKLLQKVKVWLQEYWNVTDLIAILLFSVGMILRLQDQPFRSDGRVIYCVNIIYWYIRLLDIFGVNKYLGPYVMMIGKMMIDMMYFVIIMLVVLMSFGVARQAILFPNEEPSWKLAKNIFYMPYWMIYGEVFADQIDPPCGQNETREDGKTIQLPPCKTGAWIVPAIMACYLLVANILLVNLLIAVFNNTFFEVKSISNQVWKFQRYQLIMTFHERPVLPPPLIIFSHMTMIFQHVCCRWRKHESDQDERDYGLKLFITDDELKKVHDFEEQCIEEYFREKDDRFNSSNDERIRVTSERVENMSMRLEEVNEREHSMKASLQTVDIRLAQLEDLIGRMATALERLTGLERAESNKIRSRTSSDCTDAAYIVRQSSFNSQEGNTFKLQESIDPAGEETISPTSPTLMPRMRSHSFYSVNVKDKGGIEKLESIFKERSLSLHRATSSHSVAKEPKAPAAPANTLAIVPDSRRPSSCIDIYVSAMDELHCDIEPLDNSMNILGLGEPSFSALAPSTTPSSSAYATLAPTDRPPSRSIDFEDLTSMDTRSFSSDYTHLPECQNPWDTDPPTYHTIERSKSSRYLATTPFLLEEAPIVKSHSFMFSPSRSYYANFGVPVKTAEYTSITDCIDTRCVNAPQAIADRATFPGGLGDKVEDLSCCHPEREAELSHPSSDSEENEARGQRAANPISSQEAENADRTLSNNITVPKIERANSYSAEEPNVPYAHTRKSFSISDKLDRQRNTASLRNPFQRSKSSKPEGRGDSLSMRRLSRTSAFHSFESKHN
Kind of assay: TRPM3 ion channel driven Ca2+ uptake, Fluo-4 AM assay, mTRPM3alpha2 overexpressing flip-in HEK293 cells stimulated with pregnenolone sulfate (50 μM). Type of assay: cell-based. The following applies: mTRPM3 overexpressing HEK293 cells stimulated with pregnenolone sulfate (50 μM), activity ranges A, B, C. In a few lines:
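Flip-in HEK293 cells overexpressing mTRPM3α2, loaded with Fluo-4 AM, added at ±2000 cells/well to plates holding compound plus 50 μM pregnenolone sulfate in Ca2+-containing Krebs buffer. Fluorescence (ex 485/em 535 nm) read immediately. Percent inhibition normalised between vehicle and positive-control inhibitor; IC50 derived.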
The term IC50 denotes the midpoint of a concentration-inhibition curve. Lower therefore signals greater potency. The molecule `Cc1ccc(COc2ccc3nn(C)c(C(=O)NC(C)(CO)C(N)=O)c3c2)nc1` (single isomer, unassigned) [Cpd 181 - En2] returned an IC50 of 1 to 20 µM.
Consider `Cc1ncsc1COc1ccc2nn(C)c(C(=O)NC3(C(N)=O)CCOC3)c2c1` (single isomer, unassigned) [Cpd 170 -En2], for which the IC50 was 1 to 20 µM.
With `Cc1ncsc1COc1ccc2nn(C)c(C(=O)Nc3ccn(C)n3)c2c1` [Cpd 018, 2-methyl-5-[(4-methyl-1,3-thiazol-5-yl)methoxy]-N-(1-methyl-1H-pyrazol-3-yl)-2H-indazole-3-carboxamide] the figure was 1 to 20 µM; with `Cn1nc2ccc(OCc3ccccn3)cc2c1C(=O)NC1(CO)CC1(F)F` (single isomer, unassigned) [Cpd 235 - En1, N-[2,2-difluoro-1-(hydroxymethyl)cyclopropyl]-2-methyl-5-[(pyridin-2-yl)methoxy]-2H-indazole-3-carboxamide], over 20 µM; with `Cc1ncc(COc2ccc3nn(C)c(C(=O)NC(C)(CO)C(N)=O)c3c2)o1` (single isomer, unassigned) [Cpd 179 - En1], 1 to 20 µM.
Then `Cn1nc2ccc(OCc3ccccn3)cc2c1C(=O)NC1(CO)CC1(F)F` (single isomer, unassigned) [Cpd 235 - En2, N-[2,2-difluoro-1-(hydroxymethyl)cyclopropyl]-2-methyl-5-[(pyridin-2-yl)methoxy]-2H-indazole-3-carboxamide], with 1 to 20 µM; and `CN1CC(NC(=O)c2c3cc(OCc4ccnn4C)ccc3nn2C)C(F)(F)C1` (stereo not drawn) [Cpd 088, N-(4,4-difluoro-1-methylpyrrolidin-3-yl)-2-methyl-5-[(1-methyl-1H-pyrazol-5-yl)methoxy]-2H-indazole-3-carboxamide], with over 20 µM.
`Cc1ncc(COc2ccc3nn(C)c(C(=O)NC4(CO)CCOCC4)c3c2)s1` [Cpd 124, N-[4-(hydroxymethyl)oxan-4-yl]-2-methyl-5-[(2-methyl-1,3-thiazol-5-yl)methoxy]-2H-indazole-3-carboxamide] showed an IC50 of over 20 µM.
For `Cn1nc2ccc(OCc3ccccc3)cc2c1C(=O)NC1CCN(CCO)C1=O` (stereo not drawn) [Cpd 038, 5-(benzyloxy)-N-[1-(2-hydroxyethyl)-2-oxopyrrolidin-3-yl]-2-methyl-2H-indazole-3-carboxamide], the half-maximal inhibitory concentration (IC50) was in the range of 1 to 20 µM.
Take `Cc1ncsc1COc1ccc2nn(C)c(C(=O)NC3(C(N)=O)CCC3)c2c1` [Cpd 070, N-(1-carbamoylcyclobutyl)-2-methyl-5-[(4-methyl-1,3-thiazol-5-yl)methoxy]-2H-indazole-3-carboxamide]: the IC50 was under 1 µM.
As to `Cn1nc2ccc(OCc3ccccn3)cc2c1C(=O)NC(C)(CO)C(N)=O` (single isomer, unassigned) [Cpd 162 - En1], the IC50 was 1 to 20 µM.
Then `Cn1nc2ccc(OCc3ccccc3)cc2c1C(=O)NCC(C)(C)CO` [Cpd 020, 5-(benzyloxy)-N-(3-hydroxy-2,2-dimethylpropyl)-2-methyl-2H-indazole-3-carboxamide], with 1 to 20 µM; and `Cn1nc2ccc(OCc3ccccn3)cc2c1C(=O)NC1(CO)CC(F)(F)C1` [Cpd 217, N-[3,3-difluoro-1-(hydroxymethyl)cyclobutyl]-2-methyl-5-[(pyridin-2-yl)methoxy]-2H-indazole-3-carboxamide], with 1 to 20 µM; and `Cn1nc2ccc(OCc3ccccn3)cc2c1C(=O)NC(CO)C(F)(F)F` (single isomer, unassigned) [Cpd 254 - En1], with 1 to 20 µM.
With `Cn1nc2ccc(OCC3CCCC3)cc2c1C(=O)N[C@@H](CO)C(N)=O` [Cpd 143, (2S)-2-{[5-(cyclopentylmethoxy)-2-methyl-2H-indazol-3-yl]formamido}-3-hydroxypropanamide] the figure was under 1 µM; with `CN(C)C(=O)C(C)(CO)NC(=O)c1c2cc(OCc3cccnc3C(F)(F)F)ccc2nn1C` (single isomer, unassigned) [Cpd 193 - En2, 3-hydroxy-N,N,2-trimethyl-2-[(2-methyl-5-{[2-(trifluoromethyl)pyridin-3-yl]methoxy}-2H-indazol-3-yl)formamido]propanamide], over 20 µM.
Turning to `Cn1nc2ccc(OCc3cccnc3C(F)(F)F)cc2c1C(=O)NC(C)(CO)CO` [Cpd 016, N-(1,3-dihydroxy-2-methylpropan-2-yl)-2-methyl-5-{[2-(trifluoromethyl)pyridin-3-yl]methoxy}-2H-indazole-3-carboxamide], the IC50 is under 1 µM.
`Cn1nc2ccc(OCc3ccccn3)cc2c1C(=O)NC(CO)c1ccccn1` (single isomer, unassigned) [Cpd 221 - En1] yielded an IC50 of 1 to 20 µM.
On to `Cn1nc2ccc(OCc3ccccc3)cc2c1C(=O)NC1(CO)CC1` [Cpd 004, 5-(benzyloxy)-N-[1-(hydroxymethyl)cyclopropyl]-2-methyl-2H-indazole-3-carboxamide], for which the IC50 was 1 to 20 µM.
With `Cn1nc2ccc(OCC3CCCC3)cc2c1C(=O)NC(C)(CO)CO` [Cpd 144, 5-(cyclopentylmethoxy)-N-(1,3-dihydroxy-2-methylpropan-2-yl)-2-methyl-2H-indazole-3-carboxamide] the figure was over 20 µM.
With `Cc1ncsc1COc1ccc2nn(C)c(C(=O)N[C@@H](CO)C(N)=O)c2c1` [Cpd 116, (2S)-3-hydroxy-2-({2-methyl-5-[(4-methyl-1,3-thiazol-5-yl)methoxy]-2H-indazol-3-yl}formamido)propanamide] the figure was under 1 µM; with `Cn1nccc1COc1ccc2nn(C)c(C(=O)NC3(CO)CCC3)c2c1` [Cpd 044, N-[1-(hydroxymethyl)cyclobutyl]-2-methyl-5-[(1-methyl-1H-pyrazol-5-yl)methoxy]-2H-indazole-3-carboxamide], 1 to 20 µM; with `Cn1nc2ccc(OCc3ccccc3C(F)F)cc2c1C(=O)NC(C)(CO)C(N)=O` (single isomer, unassigned) [Cpd 191 - En1], under 1 µM.
With `CN(C)C(=O)C1(NC(=O)c2c3cc(OCc4cccnc4C(F)(F)F)ccc3nn2C)CCOC1` (single isomer, unassigned) [Cpd 186 - En2] the figure was 1 to 20 µM; with `Cn1nc2ccc(OCc3ccccn3)cc2c1C(=O)NC(C)(CO)CC(F)(F)F` (single isomer, unassigned) [Cpd 255 - En2, 2-methyl-5-[(pyridin-2-yl)methoxy]-N-(4,4,4-trifluoro-1-hydroxy-2-methylbutan-2-yl)-2H-indazole-3-carboxamide], 1 to 20 µM; with `Cn1nc2ccc(OCC3(C#N)CC3)cc2c1C(=O)NC(C)(CO)CO` [Cpd 146, 5-[(1-cyanocyclopropyl)methoxy]-N-(1,3-dihydroxy-2-methylpropan-2-yl)-2-methyl-2H-indazole-3-carboxamide], over 20 µM.
Molecule `CN(C)C1(CNC(=O)c2c3cc(OCc4cccnc4C(F)(F)F)ccc3nn2C)CCC1` [Cpd 042, N-{[1-(dimethylamino)cyclobutyl]methyl}-2-methyl-5-{[2-(trifluoromethyl)pyridin-3-yl]methoxy}-2H-indazole-3-carboxamide] returned an IC50 of 1 to 20 µM.
Then `Cc1ncsc1COc1ccc2nn(C)c(C(=O)N[C@H](CO)C(N)=O)c2c1` [Cpd 113, (2R)-3-hydroxy-2-({2-methyl-5-[(4-methyl-1,3-thiazol-5-yl)methoxy]-2H-indazol-3-yl}formamido)propanamide], with 1 to 20 µM; and `Cc1ncsc1COc1ccc2nn(C)c(C(=O)NC3CNCC(F)(F)C3)c2c1` (single isomer, unassigned) [Cpd 213 - En1], with 1 to 20 µM.
Then `Cn1ccc(C(C)(CO)NC(=O)c2c3cc(OCc4ccccn4)ccc3nn2C)n1` (single isomer, unassigned) [Cpd 239 - En2], with over 20 µM; and `Cn1nc2ccc(OCc3ccccn3)cc2c1C(=O)NC1CNCC1C(F)(F)F` (single isomer, unassigned) [Cpd 246 - En2], with under 1 µM.
`Cn1nc2ccc(OCC3(C#N)CC3)cc2c1C(=O)N[C@@H](CO)C(N)=O` [Cpd 148, (2S)-2-({5-[(1-cyanocyclopropyl)methoxy]-2-methyl-2H-indazol-3-yl}formamido)-3-hydroxypropanamide] showed an IC50 of 1 to 20 µM.
Then `Cn1nc2ccc(OCC3CCCC3)cc2c1C(=O)NC(C)(C)C(N)=O` [Cpd 145, 2-{[5-(cyclopentylmethoxy)-2-methyl-2H-indazol-3-yl]formamido}-2-methylpropanamide], with 1 to 20 µM.
As for `Cn1nc2ccc(OCc3cccnc3C(F)(F)F)cc2c1C(=O)NCC(C)(C)N1CCOCC1` [Cpd 068, 2-methyl-N-[2-methyl-2-(morpholin-4-yl)propyl]-5-{[2-(trifluoromethyl)pyridin-3-yl]methoxy}-2H-indazole-3-carboxamide], the IC50 lay within 1 to 20 µM.
With `Cc1nc(COc2ccc3nn(C)c(C(=O)NC(C)(CO)C(N)=O)c3c2)cs1` (single isomer, unassigned) [Cpd 160 - En2] the figure was under 1 µM; with `Cn1nc2ccc(OCc3ccccc3)cc2c1C(=O)NC1CNCC1(F)F` (single isomer, unassigned) [Cpd 002 - En1, 5-(benzyloxy)-N-(4,4-difluoropyrrolidin-3-yl)-2-methyl-2H-indazole-3-carboxamide], over 20 µM; with `C[C@@H](O)[C@H](NC(=O)c1c2cc(OCC3CC3)ccc2nn1C)C(N)=O` [Cpd 138, (2S,3R)-2-{[5-(cyclopropylmethoxy)-2-methyl-2H-indazol-3-yl]formamido}-3-hydroxybutanamide], 1 to 20 µM.
For the molecule `Cc1ncc(COc2ccc3nn(C)c(C(=O)N[C@H](C(N)=O)[C@@H](C)O)c3c2)s1` [Cpd 149, (2S,3R)-3-hydroxy-2-({2-methyl-5-[(2-methyl-1,3-thiazol-5-yl)methoxy]-2H-indazol-3-yl}formamido)butanamide], the IC50 was under 1 µM.
Then `Cn1nc2ccc(OCc3ccccn3)cc2c1C(=O)NC(CO)c1ccccn1` (single isomer, unassigned) [Cpd 221 - En2], with 1 to 20 µM.
